Laboratory results taken from ChEMBL document CHEMBL6078649, “Discovery of Chalcone Derivatives as Bifunctional Molecules with Anti-SARS-CoV-2 and Anti-inflammatory Activities” (J Nat Prod, 2024).

Experiments:
[1] = biological target: Replicase polyprotein 1ab (Severe acute respiratory syndrome coronavirus 2, UniProt P0DTD1)
[2] = biological target: Replicase polyprotein 1ab (Severe acute respiratory syndrome coronavirus 2) (UniProt P0DTD1); test: Inhibition of SARS-CoV-2 3CLPro using DabcylKNSTLQSGLRK-Edans as substrate at 5 uM preincubated for 30 mins followed by substrate addition measured after 20 mins by FRET assay relative to control; conditions: time 50.0 min
[3] = biological target: Replicase polyprotein 1ab (Severe acute respiratory syndrome coronavirus 2) (UniProt P0DTD1); test: Inhibition of SARS-CoV-2 3CLPro using DabcylKNSTLQSGLRK-Edans as substrate at 50 uM preincubated for 30 mins followed by substrate addition measured after 20 mins by FRET assay relative to control; conditions: time 50.0 min
[4] = Cytotoxicity against mouse RAW264.7 cells assessed as cell viability at 1 uM incubated for 24 hrs by CCK8 assay relative to control; format: toxicity, cell-based; conditions: read-out: Activity
[5] = Cytotoxicity against mouse RAW264.7 cells assessed as cell viability at 50 uM incubated for 24 hrs by CCK8 assay relative to control; format: toxicity, cell-based; conditions: read-out: Activity
[6] = tested on: RAW264.7; test: Anti-inflammatory activity against mouse RAW264.7 cells assessed as inhibition of LPS-induced NO production at 1 uM preincubated for 1 hr followed by LPS treatment measured after 24 hrs relative to control; format: functional; conditions: time 25 hrs
[7] = tested on: RAW264.7; test: Anti-inflammatory activity against mouse RAW264.7 cells assessed as inhibition of LPS-induced NO production at 10 uM preincubated for 1 hr followed by LPS treatment measured after 24 hrs relative to control; format: functional; conditions: time 25 hrs
[8] = Cytotoxicity against mouse RAW264.7 cells assessed as cell viability at 10 uM incubated for 24 hrs by CCK8 assay relative to control; format: toxicity, cell-based; conditions: read-out: Activity
[9] = Cytotoxicity against human Huh-7 cells harboring viral replicon/EGFP/Neo genes assessed as cell viability at 5 uM incubated for 24 hrs by Cell Titer Glo assay relative to control; format: toxicity, cell-based; conditions: read-out: Activity
[10] = Cytotoxicity against human Huh-7 cells harboring viral replicon/EGFP/Neo genes assessed as cell viability at 50 uM incubated for 24 hrs by Cell Titer Glo assay relative to control; format: toxicity, cell-based; conditions: read-out: Activity

SMILES: O=C(O)[C@H](O)Cc1ccc(O)c(O)c1
- EC50 [1]: > 50 µM
- IC50 [1]: 2150 nM
- inhibition [2]: 5.3%

SMILES: O=C(/C=C/c1c(Cl)c(O)c(O)c(O)c1Cl)c1cccs1
- inhibition [3]: -0.9%
- viability at 24 h, 1 µM [4]: 99.1%
- viability at 24 h, 50 µM [5]: 112%
- IC50 [1]: 216 nM
- inhibition at 1 µM [6]: 35.3%
- inhibition at 10 µM [7]: 76.9%
- inhibition [2]: -1.8%
- viability at 24 h, 10 µM [8]: 82.8%

SMILES: O=C(/C=C/c1c(Cl)c(O)c(O)c(O)c1Cl)c1cccc(-c2ccc(Cl)c(Cl)c2)c1
- viability at 24 h, 1 µM [4]: 69.1%
- viability at 24 h, 50 µM [5]: 4.2%
- IC50 [1]: > 5000 nM
- inhibition at 1 µM [6]: 16.6%
- inhibition at 10 µM [7]: 70.7%
- inhibition [2]: 79.3%
- viability at 24 h, 10 µM [8]: 29.4%

SMILES: Oc1cc(CCCc2ccc(F)cc2)cc(O)c1O
- inhibition [3]: 2%
- viability at 24 h, 1 µM [4]: 94%
- viability at 24 h, 50 µM [5]: 93.6%
- IC50 [1]: 2400 nM
- inhibition at 1 µM [6]: -45.7%
- inhibition at 10 µM [7]: -14.6%
- inhibition [2]: 18%
- viability at 24 h, 10 µM [8]: 108%

SMILES: O=C(/C=C/c1cc(O)c(O)c(O)c1Cl)c1ccc(F)cc1
- inhibition [3]: 1.1%
- viability at 24 h, 1 µM [4]: 111%
- viability at 24 h, 50 µM [5]: 104%
- IC50 [1]: 429 nM
- inhibition at 1 µM [6]: -4.2%
- inhibition at 10 µM [7]: 72.8%
- inhibition [2]: 1.1%
- viability at 24 h, 10 µM [8]: 110%
- viability at 24 h, 5 µM [9]: 106%
- viability at 24 h, 50 µM [10]: 71.4%

SMILES: O=C(/C=C/c1c(Cl)c(O)c(O)c(O)c1Cl)c1ccc(O)cc1
- inhibition [3]: 1.9%
- viability at 24 h, 1 µM [4]: 122%
- viability at 24 h, 50 µM [5]: 114%
- IC50 [1]: 192 nM
- inhibition at 1 µM [6]: 16.6%
- inhibition at 10 µM [7]: 37.4%
- inhibition [2]: 1.3%
- viability at 24 h, 10 µM [8]: 95.6%
- viability at 24 h, 5 µM [9]: 105%
- viability at 24 h, 50 µM [10]: 87.9%

SMILES: O=C(/C=C/c1c(Cl)c(O)c(O)c(O)c1Cl)c1c(Cl)cc(Cl)cc1Cl
- inhibition [3]: 0.7%
- viability at 24 h, 1 µM [4]: 78.7%
- viability at 24 h, 50 µM [5]: 13%
- IC50 [1]: 404 nM
- inhibition at 1 µM [6]: 33.3%
- inhibition at 10 µM [7]: 79%
- inhibition [2]: 1.2%
- viability at 24 h, 10 µM [8]: 58.5%

SMILES: O=C(/C=C/c1c(Cl)c(O)c(O)c(O)c1Cl)c1ccc(F)cc1Cl
- inhibition [3]: 1.6%
- viability at 24 h, 1 µM [4]: 118%
- viability at 24 h, 50 µM [5]: 52.4%
- IC50 [1]: 310 nM
- inhibition at 1 µM [6]: 16.6%
- inhibition at 10 µM [7]: 87.3%
- inhibition [2]: 1.1%
- viability at 24 h, 10 µM [8]: 122%
- viability at 24 h, 5 µM [9]: 104%
- viability at 24 h, 50 µM [10]: 56.9%

SMILES: O=C(/C=C/c1c(Cl)c(O)c(O)c(O)c1Cl)c1ccc(Cl)cc1Cl
- inhibition [3]: 0.6%
- viability at 24 h, 1 µM [4]: 81%
- viability at 24 h, 50 µM [5]: 21.8%
- IC50 [1]: 306 nM
- inhibition at 1 µM [6]: 31.2%
- inhibition at 10 µM [7]: 87.3%
- inhibition [2]: 0.6%
- viability at 24 h, 10 µM [8]: 77.2%

SMILES: O=C(O)/C=C/c1c(Cl)c(O)c(O)c(O)c1Br
- inhibition [3]: 1.8%
- viability at 24 h, 1 µM [4]: 93.6%
- viability at 24 h, 50 µM [5]: 92.3%
- IC50 [1]: 3460 nM
- inhibition at 1 µM [6]: 39.5%
- inhibition at 10 µM [7]: -6.2%
- inhibition [2]: 30.7%
- viability at 24 h, 10 µM [8]: 74%

SMILES: O=C(/C=C/c1c(Cl)c(O)c(O)c(O)c1Cl)c1ccccc1F
- inhibition [3]: 3.1%
- viability at 24 h, 1 µM [4]: 89%
- viability at 24 h, 50 µM [5]: 72.8%
- IC50 [1]: 237 nM
- inhibition at 1 µM [6]: 43.7%
- inhibition at 10 µM [7]: 87.3%
- inhibition [2]: 2.3%
- viability at 24 h, 10 µM [8]: 84.6%

SMILES: O=C(/C=C/c1c(Cl)c(O)c(O)c(O)c1Cl)c1ccc(Br)cc1
- inhibition [3]: -0.3%
- viability at 24 h, 1 µM [4]: 101%
- viability at 24 h, 50 µM [5]: 12.4%
- IC50 [1]: 794 nM
- inhibition at 1 µM [6]: 5.2%
- inhibition at 10 µM [7]: 68.6%
- inhibition [2]: 1%
- viability at 24 h, 10 µM [8]: 75.7%

SMILES: O=C(/C=C/c1c(Cl)c(O)c(O)c(O)c1Cl)c1ccc(F)cc1F
- inhibition [3]: 1.1%
- viability at 24 h, 1 µM [4]: 108%
- viability at 24 h, 50 µM [5]: 65.8%
- IC50 [1]: 131 nM
- inhibition at 1 µM [6]: 35.3%
- inhibition at 10 µM [7]: 79%
- inhibition [2]: 1.1%
- viability at 24 h, 10 µM [8]: 91.8%

SMILES: O=C(O)/C=C/c1c(Cl)c(O)c(O)c(O)c1Cl
- inhibition [3]: 2.9%
- viability at 24 h, 1 µM [4]: 93.8%
- viability at 24 h, 50 µM [5]: 82.1%
- IC50 [1]: 840 nM
- inhibition at 1 µM [6]: 27%
- inhibition at 10 µM [7]: -14.6%
- inhibition [2]: 3.1%
- viability at 24 h, 10 µM [8]: 92.4%

SMILES: O=C(O)CCc1c(Cl)c(O)c(O)c(O)c1Cl
- inhibition [3]: 1%
- viability at 24 h, 1 µM [4]: 130%
- viability at 24 h, 50 µM [5]: 89.7%
- IC50 [1]: > 5000 nM
- inhibition at 1 µM [6]: 20.8%
- inhibition at 10 µM [7]: -6.2%
- inhibition [2]: 76.4%
- viability at 24 h, 10 µM [8]: 80.8%

SMILES: O=C(/C=C/c1c(Cl)c(O)c(O)c(O)c1Cl)c1ccc(Cl)c(Cl)c1
- inhibition [3]: -0.3%
- viability at 24 h, 1 µM [4]: 79.8%
- viability at 24 h, 50 µM [5]: 12.5%
- IC50 [1]: 415 nM
- inhibition at 1 µM [6]: 58.2%
- inhibition at 10 µM [7]: 89.4%
- inhibition [2]: -0.8%
- viability at 24 h, 10 µM [8]: 50%

SMILES: O=C(/C=C/c1c(Cl)c(O)c(O)c(O)c1Cl)c1ccc(Cl)cc1
- inhibition [3]: 0.4%
- viability at 24 h, 1 µM [4]: 81.2%
- viability at 24 h, 50 µM [5]: 22.6%
- IC50 [1]: 630 nM
- inhibition at 1 µM [6]: 27%
- inhibition at 10 µM [7]: 81.1%
- inhibition [2]: 0.4%
- viability at 24 h, 10 µM [8]: 68.7%

SMILES: O=C(/C=C/c1c(Cl)c(O)c(O)c(O)c1Cl)c1c(Cl)cc(F)cc1Cl
- inhibition [3]: 1.1%
- viability at 24 h, 1 µM [4]: 100%
- viability at 24 h, 50 µM [5]: 26.3%
- IC50 [1]: 403 nM
- inhibition at 1 µM [6]: 54.1%
- inhibition at 10 µM [7]: 83.2%
- inhibition [2]: 1.3%
- viability at 24 h, 10 µM [8]: 47.2%
